Reference: publication PMC9329436, “Optimization of the 4-anilinoquin(az)oline scaffold as epidermal growth factor receptor (EGFR) inhibitors for chordoma utilizing a toxicology profiling assay platform” (Scientific Reports, 2022)

Experiments:
U-CH1 chordoma cell line = assay: Cell viability assay (alamarBlue, 72 h), U-CH1; type: cell-based, human; conditions: n = 4, 72 h
Outline: (§1)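 Cells grown in 4:1 IMDM:RPMI with 10% FBS on gel-coated flasks, dosed in quadruplicate 24 h after seeding in 384-well plates.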

U-CH2 chordoma cell line = assay: Cell viability assay (alamarBlue, 72 h), U-CH2; type: cell-based, human; conditions: n = 4, 72 h
Outline: as §1

[1] = system: CH22 patient-derived chordoma cell line; assay: Cell viability assay (alamarBlue, 72 h), CH22; type: cell-based, human; conditions: n = 4, 72 h
Protocol: (§2) Chordoma cell lines were cultured as described previously[10],[12],[33],[34]. Briefly, U-CH1 and U-CH2 cell lines were cultured in 4:1 IMDM:RPMI medium supplemented with 10% fetal bovine serum (FBS) and 1% penicillin/streptomycin in gel-coated flasks. […] CH22, UM-Chor1, U-CH12, and U-CH7 cell lines were cultured in RPMI medium supplemented with 10% FBS and 1% penicillin/streptomycin. The cell lines all undergo regular mycoplasma screening.
(§3) Cells were seeded in 384 well plates and were treated with test compound in quadruplicate 24 h after plating. Cell viability was assessed at 72 h using alamarBlue (ThermoFisher, USA). […] IC50 values were determined by four-parameter nonlinear regression analyses using GraphPad Prism™ version 8 software (San Diego, CA).

[2] = system: UM-Chor1 patient-derived chordoma cell line; assay: Cell viability assay (alamarBlue, 72 h), UM-Chor1; type: cell-based, human; conditions: n = 4, 72 h
Protocol: as §2, §3

[3] = system: U-CH12 patient-derived chordoma cell line; assay: Cell viability assay (alamarBlue, 72 h), U-CH12; type: cell-based, human; conditions: n = 4, 72 h
Protocol: as §2, §3

[4] = system: U-CH7 patient-derived chordoma cell line; assay: Cell viability assay (alamarBlue, 72 h), U-CH7; type: cell-based, human; conditions: n = 4, 72 h
Protocol: as §2, §3

[5] = system: WS1 human fibroblast cell line; assay: Cell viability assay, WS1 toxicity control; type: cell-based; conditions: n = 4, nonspecific toxicity control
Protocol: as §3

HL60 cells = assay: AsedaSciences SYSTEMETRIC Cell Health Screen (flow cytometry toxicity profiling); conditions: for CC: Cell Cycle score / CM: Cell morphology score / CMI: Cell membrane integrity score / GSH: Glutathione score / MMP: Mitochondrial membrane depolarization score / NMI1: Nuclear membrane integrity 1 score / NMI2: Nuclear membrane integrity 2 score / ROS: Reactive superoxide species score / CHI: Cell Health Index: HL60, 4 h, 5 nM–100 µM; for CC: Cell Cycle score / CM: Cell morphology score / CMI: Cell membrane integrity score / GSH: Glutathione score / MMP: Mitochondrial membrane depolarization score / NMI1: Nuclear membrane integrity 1 score / NMI2: Nuclear membrane integrity 2 score / ROS: Reactive superoxide species score: probability 0–1, n = 2; for CHI: Cell Health Index: probability (0–1) of high-risk class, n = 2
Outline: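 HL60 cells (100,000 per well) exposed 4 h at 37 °C, 5% CO2 to 10-step 3× dilutions (5 nM–100 µM), in duplicate. Cells then stained with mitochondrial and cell-stress reporter dyes and read by ungated flow cytometry over twelve parameters. Cell Health Index and eight endpoint scores come from an ML classifier trained on 300 high/low-risk compounds.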

EGFR = EGFR (Homo sapiens, UniProt P00533); assay: ProQinase in-cell EGFR assay (EGFR phosphorylation in A431 cells); type: cell-based; parameters: This cell line endogenously expresses a high level of EGFR; endogenous in cells; host or cells: A431; conditions: ProQinase in-cell EGFR assay, A431 cells, n = 1
Chain of EGFR (P00533 25-1210): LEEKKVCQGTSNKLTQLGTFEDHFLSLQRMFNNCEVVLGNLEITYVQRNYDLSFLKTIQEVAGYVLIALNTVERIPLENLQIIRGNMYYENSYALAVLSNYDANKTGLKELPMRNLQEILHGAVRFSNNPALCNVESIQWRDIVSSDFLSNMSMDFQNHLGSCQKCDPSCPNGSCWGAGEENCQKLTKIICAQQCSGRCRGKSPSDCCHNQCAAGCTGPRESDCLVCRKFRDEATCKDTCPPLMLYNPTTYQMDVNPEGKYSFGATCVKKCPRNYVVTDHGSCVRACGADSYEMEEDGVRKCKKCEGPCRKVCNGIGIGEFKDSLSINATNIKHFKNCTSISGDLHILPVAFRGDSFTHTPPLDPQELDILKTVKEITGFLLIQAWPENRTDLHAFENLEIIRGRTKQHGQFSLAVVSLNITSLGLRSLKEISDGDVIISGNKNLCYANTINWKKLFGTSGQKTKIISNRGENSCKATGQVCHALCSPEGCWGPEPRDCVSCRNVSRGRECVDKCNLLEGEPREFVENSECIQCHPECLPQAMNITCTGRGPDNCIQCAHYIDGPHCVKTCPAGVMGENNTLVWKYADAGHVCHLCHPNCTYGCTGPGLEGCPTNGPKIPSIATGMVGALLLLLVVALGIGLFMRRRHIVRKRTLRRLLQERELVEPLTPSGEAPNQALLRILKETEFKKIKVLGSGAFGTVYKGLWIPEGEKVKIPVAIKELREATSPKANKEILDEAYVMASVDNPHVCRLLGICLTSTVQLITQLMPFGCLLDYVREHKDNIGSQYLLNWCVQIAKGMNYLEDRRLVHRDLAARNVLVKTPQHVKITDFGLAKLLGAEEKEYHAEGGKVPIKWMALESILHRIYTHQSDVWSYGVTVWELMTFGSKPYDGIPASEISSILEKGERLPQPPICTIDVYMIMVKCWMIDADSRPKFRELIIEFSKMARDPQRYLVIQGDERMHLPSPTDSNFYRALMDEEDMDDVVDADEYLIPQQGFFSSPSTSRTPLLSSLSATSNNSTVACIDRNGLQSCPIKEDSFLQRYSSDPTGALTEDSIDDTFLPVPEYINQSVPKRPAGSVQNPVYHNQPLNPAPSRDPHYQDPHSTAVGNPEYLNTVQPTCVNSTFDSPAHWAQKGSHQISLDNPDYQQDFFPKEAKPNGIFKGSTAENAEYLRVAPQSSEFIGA
Text: In addition, we ran an EGFR in-cell target engagement assay, measuring in-cell EGFR phosphorylation, using the human epidermoid carcinoma cell line A431. This cell line endogenously expresses a high level of EGFR, and stimulation of these cells with human epidermal growth factor (EGF) results in receptor tyrosine autophosphorylation.

[6] = SYSTEMETRIC Cell Health Screen, assay n=2

Compound	IC50 (U-CH1 chordoma cell line)	IC50 (U-CH2 chordoma cell line)	IC50 [1]	IC50 [2]	IC50 [3]	IC50 [4]	IC50 [5]	CC: Cell Cycle score (HL60 cells)	CM: Cell morphology score (HL60 cells)	CMI: Cell membrane integrity score (HL60 cells)	GSH: Glutathione score (HL60 cells)	MMP: Mitochondrial membrane depolarization score (HL60 cells)	NMI1: Nuclear membrane integrity 1 score (HL60 cells)	NMI2: Nuclear membrane integrity 2 score (HL60 cells)	ROS: Reactive superoxide species score (HL60 cells)	CHI: Cell Health Index (HL60 cells)	IC50 (EGFR)	other results
C#Cc1cc(Nc2ncnc3ccc(I)cc23)ccc1F [Compound 36]	2.7 µM	> 100 µM	> 100 µM	> 100 µM	> 100 µM	> 100 µM	> 100 µM	0.038	0.011	0.31	0.068	0.13	0.24	0.048	0.35	0.27	2.7 µM	–
C#Cc1cccc(Nc2c(C#N)cnc3cc(I)ccc23)c1 [Compound 32]	> 100 µM	> 100 µM	> 100 µM	> 100 µM	> 100 µM	> 100 µM	> 100 µM	0.95	1.00	1.00	0.98	0.99	0.95	0.94	0.99	0.81	2.7 µM	Cell Health Toxcity Profile CC (DyeCycle Violet) (HL60 cells; [6]): 0.95; Cell Health Toxcity Profile CM (Cell morphology) (HL60 cells; [6]): 1.00; Cell Health Toxcity Profile CMI (Cell membrane integrity) (HL60 cells; [6]): 1.00; Cell Health Toxcity Profile GSH (Glutathione) (HL60 cells; [6]): 0.98; Cell Health Toxcity Profile MMP (Mitochondrial membrane depolarization) (HL60 cells; [6]): 0.99; Cell Health Toxcity Profile NMI1 (Nuclear membrane integrity 1) (HL60 cells; [6]): 0.95; Cell Health Toxcity Profile NMI2 (Nuclear membrane integrity 2) (HL60 cells; [6]): 0.94; Cell Health Toxcity Profile ROS (Reactive superoxide species) (HL60 cells; [6]): 0.99; Cell Health Toxcity Profile CHI (HL60 cells; SYSTEMETRIC Cell Health Screen, classifier output, assay n=2): 0.81
C#Cc1ccc(F)c(Nc2ncnc3cc(I)ccc23)c1 [Compound 38]	15 µM	> 100 µM	> 100 µM	> 100 µM	> 100 µM	> 100 µM	> 100 µM	0.98	1.00	1.00	1.00	0.96	0.99	1.00	1.00	0.88	5.2 µM	–
C#Cc1cccc(Nc2ncnc3cc4c(cc23)OCCO4)c1 [Compound 21]	8.8 µM	> 100 µM	> 100 µM	64 µM	> 100 µM	> 100 µM	> 100 µM	0.77	0.053	0.91	0.39	0.91	0.73	0.83	0.85	0.56	1.9 µM	–
